# In ChEMBL document CHEMBL1136067, “The activity of diguanidino and 'reversed' diamidino 2,5-diarylfurans versus Trypanosoma cruzi and Leishmania donovani” (Bioorg Med Chem Lett, 2003):
# How the values were obtained:
# Leishmania donovani [1] = experiment: Inhibitory activity against Leishmania donovani (amastigote); type: functional, organism-based
# Leishmania donovani [2] = experiment: Inhibitory activity against Leishmania donovani (macrophage); type: functional, organism-based
# Trypanosoma cruzi = experiment: Inhibitory activity against Trypanosoma cruzi; type: functional, organism-based
# [3] = Cell toxicity was evaluated; type: functional
# Nucleic Acid [4] = system: Nucleic Acid
# Nucleic Acid [5] = system: Nucleic Acid; remark: listed apart in the source
# Description: DNA binding affinity measured as an increase in thermal melting of poly(dA.dT)2
SMILES,IC50 (Leishmania donovani [1]; read-out: IC50) [µM],IC50 (Leishmania donovani [2]) [µM],IC50 (Trypanosoma cruzi) [µM],IC50 [3] [µM],ΔTm (Nucleic Acid [4]),ΔTm (Nucleic Acid [5]),IC50 (Leishmania donovani [1]) [µM]
COc1cc(NC(=N)N)ccc1-c1ccc(-c2ccc(NC(=N)N)cc2OC)o1,18.7,5.2,1.3,20,2.8,15.2,–
N=C(Nc1ccc(-c2ccc(-c3ccc(NC(=N)c4ccccc4)cc3)o2)cc1)c1ccccc1,> 100,> 8,13.7,3.8,15,28,–
Cc1cc(NC(=N)c2ccccn2)ccc1-c1ccc(-c2ccc(NC(=N)c3ccccn3)cc2C)o1,0.38,0.6,0.21,11.3,8.9,22.6,–
Cc1c(N=C(N)N)ccc(-c2ccc(-c3ccc(N=C(N)N)c(C)c3C)o2)c1C,4.2,> 19,2.7,33.4,1.3,3.8,–
CCOc1cc(-c2ccc(-c3ccc(N=C(N)N)c(OCC)c3)o2)ccc1N=C(N)N,11.2,> 40,152,74,6.8,16.5,–
N=C(N)Nc1ccc(-c2ccc(-c3ccc(NC(=N)N)cc3Cl)o2)c(Cl)c1,6.2,> 6.8,27,14.2,4.7,26.1,–
COc1cc(-c2ccc(-c3ccc(/N=C(\N)c4ccccn4)c(OC)c3)o2)ccc1/N=C(\N)c1ccccn1,0.29,0.16,1,7.9,6.6,15.2,–
O=C(Cn1ccnc1[N+](=O)[O-])NCc1ccccc1 [BENZNIDAZOLE],–,–,1.27,–,–,–,–
N=C(Nc1ccc(-c2ccc(-c3ccc(NC(=N)c4ccccn4)c(Cl)c3)o2)cc1Cl)c1ccccn1,0.51,–,0.5,128,1.5,0.6,–
N=C(Nc1ccc(-c2ccc(-c3ccc(NC(=N)c4ccccn4)cc3)o2)cc1)c1ccccn1,0.55,1.45,9.6,17.1,7.5,19.6,–
CC(C)Oc1cc(NC(=N)N)ccc1-c1ccc(-c2ccc(NC(=N)N)cc2OC(C)C)o1,9.65,> 6,35,16,1.5,12,–
CCCCCCCCCCCCCCCCOP(=O)([O-])OCC[N+](C)(C)C [MILTEFOSINE],–,1,–,–,–,–,–
COc1cc(NC(=N)c2ccccn2)ccc1-c1ccc(-c2ccc(NC(=N)c3ccccn3)cc2OC)o1,0.1,0.48,0.57,12.7,7.8,19,–
COc1cc(-c2ccc(-c3ccc(N=C(N)N)c(OC)c3)o2)ccc1N=C(N)N,14.5,> 29,29,39.6,6.2,15.4,–
N=C(N)Nc1ccc(-c2ccc(-c3ccc(NC(=N)N)cc3C(F)(F)F)o2)c(C(F)(F)F)c1,14.8,> 5.6,31.2,11.3,0,5.9,–
CSc1cc(-c2ccc(-c3ccc(N=C(N)N)c(SC)c3)o2)ccc1N=C(N)N,22.6,> 19,114,68,2.6,12.2,–
N=C(N)c1ccc(OCCCCCOc2ccc(C(=N)N)cc2)cc1 [PENTAMIDINE],–,9.3,7.1,4.2,4.8,12.8,2.6
Cc1c(/N=C(\N)c2ccccn2)ccc(-c2ccc(-c3ccc(/N=C(\N)c4ccccn4)c(C)c3C)o2)c1C,1.14,3.6,0.91,60.6,4.2,13.8,–
N=C(N)Nc1ccc(-c2ccc(-c3ccc(N=C(N)N)c(Cl)c3)o2)cc1Cl,> 50,> 6.3,44,35.7,2.6,12.7,–
N=C(N)Nc1ccc(-c2ccc(-c3ccc(NC(=N)N)cc3)o2)cc1,10.9,> 24,86,143,10.8,21.6,–
N=C(Nc1ccc(-c2ccc(-c3ccc(NC(=N)c4ccccn4)cc3Cl)o2)c(Cl)c1)c1ccccn1,0.66,0.13,0.49,8,0,5.2,–
Cc1cc(NC(=N)N)ccc1-c1ccc(-c2ccc(NC(=N)N)cc2C)o1,3.3,> 6,3.2,14.6,6.9,17.8,–
CSc1cc(-c2ccc(-c3ccc(/N=C(\N)c4ccccn4)c(SC)c3)o2)ccc1/N=C(\N)c1ccccn1,0.35,0.15,0.15,7.3,0,1,–
N=C(N)c1ccc(-c2ccc(-c3ccc(C(=N)N)cc3)o2)cc1 [FURAMIDINE],2.7,–,23.3,6.4,11.7,25,–
